biological target: T1, cannabinoid CB1 (Homo sapiens, UniProt P21554); test: Competition binding assay for cannabinoid CB1 affinity (3H-CP55,940 displacement); conditions: membranes from cells expressing the receptor, 0.5 nM 3H-CP55,940; Ki by Cheng-Prusoff; read-out: Ki values as measured in the above assay
T1 construct: purchased
Experimental: Non-specific binding was defined in the presence of 10 μM CP55,940. For saturation studies, concentrations of ^3H—CP55,940 ranging from 0.1-5 nM were incubated with membranes in the presence and absence of 10 μM CP55,940. Assays were terminated after incubation for 1½ hours by rapid filtration onto 0.3% polyethylenamine treated GF/C filterplates using a BRANDEL cell harvester. The plates were dried and MICROSCINT scintillation cocktail was added, after which the bound radioactivity was quantified using a TOPCOUNT scintillation counter.
The dissociation constant (Kd) of ^3H—CP55,940 at the CB1 and CB2 receptor were determined by plotting specific binding at each concentration of radioligand, and analysis by non-linear regression. For competition studies, the concentration of each drug that inhibited 50 percent of ^3H—CP55,940 binding (IC50) was determined by non-linear regression analysis of the radioligand displacement curves. Affinity constants (K) were calculated using the equation derived by Cheng and Prusoff (1973), defined as: IC50/1+[conc. ligand/Kd].

T1 sequence (P21554 whole entry): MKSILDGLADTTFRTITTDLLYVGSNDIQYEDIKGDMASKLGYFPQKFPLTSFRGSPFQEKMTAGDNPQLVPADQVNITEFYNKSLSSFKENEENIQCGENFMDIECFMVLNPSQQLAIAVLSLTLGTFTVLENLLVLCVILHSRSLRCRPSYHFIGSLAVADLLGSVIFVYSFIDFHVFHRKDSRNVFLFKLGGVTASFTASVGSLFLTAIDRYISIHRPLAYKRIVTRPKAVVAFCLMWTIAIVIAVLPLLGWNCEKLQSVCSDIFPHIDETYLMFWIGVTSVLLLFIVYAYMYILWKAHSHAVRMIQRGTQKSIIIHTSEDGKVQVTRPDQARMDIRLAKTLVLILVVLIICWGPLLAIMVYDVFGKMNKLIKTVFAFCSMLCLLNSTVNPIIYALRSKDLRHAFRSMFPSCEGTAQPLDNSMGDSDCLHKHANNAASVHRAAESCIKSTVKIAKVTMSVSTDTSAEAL

Row | Ki [nM] | Structure (SMILES)
1 | ≤ 100 | Fc1ccc(CC2CN(c3ccc(Cl)cc3)C(c3ccc(Cl)cc3Cl)CO2)cc1F (stereo not shown) [Example 1]
2 | ≤ 800 | CC(C)(C)OC(=O)CC1OCC(c2ccc(Cl)cc2Cl)N(c2ccc(Cl)cc2)C1=O (stereo not shown) [Example 2]
3 | ≤ 800 | NCCC1CN(c2ccc(Cl)cc2)C(c2ccc(Cl)cc2Cl)CO1 (stereo not shown) [Example 5]
4 | ≤ 25 | O=S(=O)(NCCC1CN(c2ccc(Cl)cc2)C(c2ccc(Cl)cc2Cl)CO1)c1cccnc1 (stereo not shown) [Example 6]

Reference: patent publication US20100197564A1, “DIARYL MORPHOLINES AS CB1 MODULATORS” (Schering Corporation, priority 2007, published 2010)
